A short description of the data set: Human HepG2 cell viability assay in 384 well format. The format is toxicity, cell-based. The following applies: HepG2 cells, read-out: Inhibition. Set-up: dose 125 nL, time 70.5 hour; cytotoxicity at 70.5 h: concentration not given beside the values.

As for `CCOc1c(Br)cc(C2C3=C(COC3=O)Nc3[nH]nc(C)c32)cc1OC` (centres undefined), the cytotoxicity at 70.5 h was 29.2%.
To `CN(C)C(=O)c1nc2c(s1)CCCN2Cc1ccccc1` belongs -7.89%; to `CC(=O)N1CCCC2(CCN(Cc3ccc(Cl)c(C(F)(F)F)c3)C2)C1` (centres undefined), -5.69%.
As for `CC(C)NC(=O)c1nc2c(s1)CCCN2Cc1ccccc1`, the figure is -6.15%; as for `O=S(=O)(C1CC1)N1CCOC2(CCCN(c3cccc(F)c3)C2)C1` (centres undefined), -3.57%; as for `CN(C)C(=O)CN1CCO[C@H]2CN(c3ccccn3)C[C@H]21`, -3.6%.
Take `CCS(=O)(=O)N1CCC2(CCCN(c3ncc(F)cn3)C2)C1` (centres undefined): the cytotoxicity at 70.5 h was -6.13%.
To `O=C(Cc1ccccn1)N1CCC2(CC1)CN(c1ccccn1)CCO2` belongs -6.92%.
As for `CCS(=O)(=O)N1CCC2(CN(C(=O)c3cscn3)C2)C1`, the figure is -3.48%; as for `Cc1ccc(C(=O)N2C[C@@H]3CN(c4ncccn4)C[C@@H]3C2)cc1`, -4.94%.
Take `COCCC(=O)N1CC2(CCN(c3ccccc3)C2)C1`: the cytotoxicity at 70.5 h turned out to be 3.88%.
To `Cc1cccc(N2CCCC3(C2)CN(S(C)(=O)=O)CCO3)c1` (centres undefined) belongs -4.48%.
To `COCCN1C(=O)CC[C@@H]2[C@H]1CCN2C(=O)C1CCOCC1` belongs -7.67%.
To `Cc1cccc(Cl)c1NC(=O)Cn1cc(C(=O)O)ccc1=O` belongs -2.75%.
With `O=C(Cn1cc(C(=O)O)ccc1=O)NCc1ccc(F)cc1Cl`, the cytotoxicity at 70.5 h amounted to 5.89%.
As for `O=C(Cn1cc(C(=O)O)ccc1=O)Nc1cc(F)ccc1F`, the figure is -9.56%.
As for `COc1cccc(C2C3=C(COC3=O)Nc3[nH]nc(C)c32)c1OC` (centres undefined), the figure is -3.26%; as for `CCN(CC)c1ccc(C2C3=C(COC3=O)Nc3[nH]nc(C)c32)cc1` (centres undefined), -4.13%.
On to `O=C1CC(c2ccc(F)cc2)Cc2[nH]c(=O)c(C(=O)O)cc21` (centres undefined), for which the cytotoxicity at 70.5 h was -8.55%.
Turning to `O=C1N(c2ccc(Cl)cc2)Cc2nc(=O)[nH]n21`, the cytotoxicity at 70.5 h was -11.3%.
As for `O=C1N(c2cccc(F)c2)Cc2nc(=O)[nH]n21`, the figure is -7.69%; as for `COc1cccc(C2SCC(=O)Nc3ccsc32)c1` (centres undefined), 0.777%; as for `O=C1CC(c2ccc(C(=O)O)cc2)c2ncn(-c3ccc(Cl)cc3)c2N1` (centres undefined), -13%.
As for `O=C1CC(c2ccc(C(=O)O)cc2)c2ncn(-c3ccccc3Cl)c2N1` (centres undefined), the figure is -12.6%; as for `COc1cccc(N2Cc3nc(=O)[nH]n3C2=O)c1`, -16.5%; as for `CC1CCc2nc(O)c(C(=O)NCc3ccncc3)cc2C1` (centres undefined), 5.88%.
To `CC1CCc2nc(O)c(C(=O)NCc3ccccc3F)cc2C1` (centres undefined) belongs 7.1%.
Turning to `COCCN1CCCn2cnc(CNC3CCCC3)c2C1`, the cytotoxicity at 70.5 h stood at 0.0497%.
To `Cc1nc(NCc2ccco2)nc2c1COCC21CCNC1` (centres undefined) belongs -8.24%; to `COCC(=O)N1CCC2(CC1)CNc1ccc(F)cc12`, -9.36%.
To `Cc1cnc(N2C[C@H]3CCN(CC4CC4)C[C@@H]3C2)nc1` belongs 7.8%; to `Cc1cccc(N2CCCC3(C2)CN(S(=O)(=O)C2CC2)CCO3)c1` (centres undefined), -3.02%.
As for `c1csc(CN2CCc3onc(Cn4cccc4)c3C2)c1`, the figure is 2.81%; as for `CC(=O)N1CCn2c(-c3cccc(F)c3)cnc2C12CCNCC2`, -7.49%; as for `O=C(Cc1ccccn1)N1CCC2(CC1)CN(CC1CC1)C(=O)CO2`, -5.52%.
In the case of `CN(C)C(=O)NCc1ncn2c1CN(Cc1cccs1)CCC2`, the cytotoxicity at 70.5 h was -3.13%.
As for `CC(C)NC1CCc2c(ccc(=O)n2CCN2CCOCC2)C1` (centres undefined), the figure is -6.6%; as for `Cn1cc2c(n1)C(CNCC1CCOCC1)OCC2` (centres undefined), 4.92%; as for `Cc1cnc(N2CC[C@H]3[C@H](C[C@@H](CN(C)C)N3C)C2)nc1`, -6.09%.

The values above are taken from ChEMBL document CHEMBL3507680, “University of Dundee, Gates Library screen for HepG2 cell viability”.
